The target in assay [1] is T1, CD73 (Homo sapiens, UniProt P21589, K145S/K147S/K478S/N311D/N333D/N403D/N53D/T376A).
T1 construct: His6 (C); made in house
T1 sequence (P21589 27-549 N53D/K145S/K147S/N311D/N333D/T376A/N403D/K478S limits assumed): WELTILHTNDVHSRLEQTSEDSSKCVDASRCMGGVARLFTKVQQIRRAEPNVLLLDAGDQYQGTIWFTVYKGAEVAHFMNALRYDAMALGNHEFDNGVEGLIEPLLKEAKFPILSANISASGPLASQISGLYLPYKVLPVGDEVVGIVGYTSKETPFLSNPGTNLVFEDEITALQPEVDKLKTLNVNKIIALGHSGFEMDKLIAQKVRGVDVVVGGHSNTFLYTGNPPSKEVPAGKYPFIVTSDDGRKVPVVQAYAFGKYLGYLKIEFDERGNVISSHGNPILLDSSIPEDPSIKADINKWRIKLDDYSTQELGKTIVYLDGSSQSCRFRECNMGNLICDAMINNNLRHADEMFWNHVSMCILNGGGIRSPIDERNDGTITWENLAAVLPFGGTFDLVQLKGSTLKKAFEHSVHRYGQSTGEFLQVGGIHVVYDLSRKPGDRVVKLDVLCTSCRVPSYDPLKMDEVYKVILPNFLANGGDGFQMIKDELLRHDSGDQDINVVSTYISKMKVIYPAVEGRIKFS
Briefly: Crystallographic fragment screening by crystal soaking, open form of CD73. Type of assay: binding. On the procedure: Purified CD73 was concentrated to 7 mg/mL, and hanging drop crystallizations were set up versus 100 mM Tris pH 7.8 and 10% PEG6000, using equal amounts of protein and reservoir solution. Crystallisation experiments were carried out at 19 °C. Following crystal formation (1–2 days), the crystals were transferred to soaking solution containing reservoir solution with additional commercially available nucleotides or fragments (see Table S1) at concentrations between 2 and 100 mM. Crystals were then transferred to cryo solution containing an additional 20% glycerol, soaked for ~ 2–5 min and flash frozen in liquid nitrogen.
X-ray data collection was carried out at 100 K using a wavelength of 0.91841 Å on beamline 14.1 of the Berlin Synchrotron (BESSY, Berlin, Germany) equipped with a PILATUS 6 M detector [43]. All datasets were indexed, integrated, scaled and converted to structure factor amplitudes using XDSAPP [44] and AIMLESS [45]. The crystals belong to crystal form II of CD73 (pdb id 4h1y), which was used as a starting model for refinement. Coot and REFMAC5 [47] were used for model building and refinement. The final structures were validated using PROCHECK [48] and outliers in the Ramachandran plot were checked manually.
The HZB fragment library used for this work contains 102 compounds [41]. […] The presence of 12 compounds containing a nucleoside moiety in the fragment library contributed to the high hit rate of 23.5%.

The target in assay [2] is T1, CD73. Put plainly: Substrate preference of CD73 for nucleoside monophosphates, malachite green assay. In kind it is biochemical. Conditions: 1 mM substrate; for percentage activity relative to AMP (100%): 1.25 ng CD73; for decrease in absolute activity (relative to AMP) compared with the ribonucleotide equivalent: deoxyribo form vs ribo form. The method, then:
Each assay consisted of reaction buffer A (50 mM Tris–HCl pH 7.5, 100 mM NaCl, 1 mM MgCl2) to which the appropriate substrate and/or inhibitors (see Table S1) were added. Dissolved compounds were immediately used for the inhibition assays. The reactions were generally initiated by the addition of protein. The protein concentrations, substrates and inhibitors used for the various experiments are detailed below. In all experiments, reactions were monitored over a 10-min period during which samples were taken at regular intervals. At each desired time point, a malachite green/molybdate (1:1) solution was added to the sample, which simultaneously terminated the assay and also allowed the detection of the produced phosphate ions. These reaction mixtures were incubated at 25 °C for 25 min, followed by measurement of the absorbance at 620 nm. A standard curve (0–50 μM orthophosphate) was performed prior to each assay and was used to calculate the phosphate concentration. All measurements were carried out in triplicate. […] The specific activity (μmol Pi/min/mg protein) was calculated from the initial reaction rates and was used to determine when the protein refolding process had reached completion. […] Kinetic values were determined by fitting the Michaelis–Menten equation to the initial reaction rates using GraphPad Prism (GraphPad Software, La Jolla, CA, USA).

A further assay concerns the target rat CD73. The settings on record: cited from earlier work.
In assay [3] the target is T1, CD73. Put plainly: CD73 inhibition, malachite green assay. In kind it is biochemical. On the procedure:
In this study, enzyme activity and inhibition data was characterised using a modified malachite green assay. Each assay consisted of reaction buffer A (50 mM Tris–HCl pH 7.5, 100 mM NaCl, 1 mM MgCl2) to which the appropriate substrate and/or inhibitors (see Table S1) were added. Dissolved compounds were immediately used for the inhibition assays. The reactions were generally initiated by the addition of protein. The protein concentrations, substrates and inhibitors used for the various experiments are detailed below. In all experiments, reactions were monitored over a 10-min period during which samples were taken at regular intervals. At each desired time point, a malachite green/molybdate (1:1) solution was added to the sample, which simultaneously terminated the assay and also allowed the detection of the produced phosphate ions. These reaction mixtures were incubated at 25 °C for 25 min, followed by measurement of the absorbance at 620 nm. A standard curve (0–50 μM orthophosphate) was performed prior to each assay and was used to calculate the phosphate concentration. All measurements were carried out in triplicate.
To study the inhibition kinetics of CD73 against a panel of commercially available nucleotide-diphosphate analogues (AMPCP, GMPCP, dUMPCP and CMPCP; see Table S1), their IC50 values were determined. In these tests, CD73 protein (1.25 ng) was incubated in reaction buffer A containing various inhibitor concentrations (0.015, 0.031, 0.061, 0.12, 0.24, 0.49, 0.98, 1.95, 3.91, 7.81, 15.62, 31.25, 62.5, 125, 250 and 500 μM). […] Dose–response curves were plotted in GraphPad Prism (GraphPad Prism Software, La Jolla, CA, USA), and the inflection point of each curve was used to determine the IC50 value of each inhibitor. The IC50 values were then used to calculate the Ki value of each inhibitor using the Cheng-Prusoff equation [51].

Assay [4] has as its target CD73. The settings on record: competitive inhibitor of CD73, cited from earlier work.
Assay [5] deals with CD73. The settings on record: substrate of CD73; cited from earlier work.

Molecules are shown by their SMILES. Counter-ions that a name gives are not always drawn. Like-named read-outs stand apart in the source and are kept apart here.

`Cc1cc2nc3c(=O)[nH]c(=O)nc-3n(C[C@H](O)[C@H](O)[C@H](O)CO)c2cc1C` [riboflavin]: the “binding to the nucleoside binding site (crystal structure)” value (“binding to the nucleoside binding site” below) on CD73 [1] is given as “did bind to the nucleoside binding site”.

Consider `Nc1nc2c(ncn2[C@@H]2O[C@H](COP(=O)([O-])[O-])[C@@H](O)[C@H]2O)c(=O)[nH]1.[Na+].[Na+]` [GMP, Guanosin-5'-monophosphat Dinatriumsalz], for which the “percentage activity relative to AMP (100%)” value at CD73 [2] came out at 33.2%. In the case of `O=[N+]([O-])c1ccc(O)c(O)c1` [4-nitrocatechol], on CD73 [1], the “binding to the nucleoside binding site” value is on record as “did bind to the nucleoside binding site”. For the compound `O=c1ccn([C@@H]2O[C@H](COP(=O)(O)CP(=O)(O)O)[C@@H](O)[C@H]2O)c(=O)[nH]1` [UMPCP], on rat CD73, the Ki is 1.83 ± 0.53 µM.

As for `O=c1[nH]cc(I)c(=O)[nH]1` [5-iodouracil], at CD73 [1], the “binding to the nucleoside binding site” value is recorded as “did bind to the nucleoside binding site”.

For the compound `Nc1ccn([C@H]2C[C@H](O)[C@@H](COP(=O)(O)O)O2)c(=O)n1` [dCMP, 2′-Deoxycytidine 5′-monophosphate], at CD73 [2], the “percentage activity relative to AMP (100%)” value was determined as 47.6%. Consider `Nc1nc2c(ncn2[C@H]2C[C@H](O)[C@@H](COP(=O)(O)O)O2)c(=O)[nH]1` [dGMP, 2′-Deoxyguanosine 5′-monophosphate], for which, at CD73 [2], the “percentage activity relative to AMP (100%)” value worked out at 4.8% and the “decrease in absolute activity (relative to AMP) compared with the ribonucleotide equivalent” value is listed as 28.4%. In the case of `Cc1cn([C@H]2C[C@H](O)[C@@H](COP(=O)([O-])[O-])O2)c(=O)[nH]c1=O.[Na+].[Na+]` [dTMP, Thymidine 5'-Monophosphate Natriumsalz], the “binding to the nucleoside binding site” value on CD73 [1] is “only low occupancy binding”. Besides, the “percentage activity relative to AMP (100%)” value on CD73 [2] is on record as 49.4%. `Nc1nc2c(ncn2[C@@H]2O[C@H](COP(=O)(O)CP(=O)(O)O)[C@@H](O)[C@H]2O)c(=O)[nH]1` [GMPCP, α,β-Methyleneguanosine 5′-diphosphate sodium salt]: on CD73 [3], half-maximal inhibition (IC50) required 1.42 ± 0.02 µM and the Ki came to 0.135 ± 0.0027 µM. As for `Nc1ncnc2c1ncn2[C@@H]1O[C@H](COP(=O)(O)OP(=O)(O)OP(=O)(O)O)[C@@H](O)[C@H]1O` [ATP], the Ki is 1.5 µM on CD73 [4] (ref 32) and 8.9 µM on CD73 [4] (ref 33). With `O=c1ccn([C@H]2C[C@H](O)[C@@H](COP(=O)(O)CP(=O)(O)O)O2)c(=O)[nH]1` [dUMPCP, 2'-Deoxyuridine-5'-[(α,β)-methyleno]diphosphate, Sodium salt], at CD73 [3] (calculated from IC50 with the Cheng-Prusoff equation, human deglycosylated CD73 construct, read-out: Ki), the Ki was 0.374 ± 0.0069 µM. Also, at CD73 [3] (comparison between CMPCP and dUMPCP), the loss in affinity was 1.2 fold. Besides, the IC50 on CD73 [3] (read-out: IC50) was found to be 3.94 ± 0.01 µM. Regarding `NC(=O)c1ccc[n+]([C@@H]2O[C@H](COP(=O)([O-])O)[C@@H](O)[C@H]2O)c1` [nicotinamide mononucleotide], in the assay on CD73 [5], the turnover rate was 110 nmol/min/mg. In the case of `Cn1c(=O)c2c(ncn2C)n(C)c1=O` [caffeine], the “binding to the nucleoside binding site” value on CD73 [1] is reported as “did bind to the nucleoside binding site”. On to `O=c1ccn([C@@H]2O[C@H](COP(=O)([O-])[O-])[C@@H](O)[C@H]2O)c(=O)[nH]1.[Na+].[Na+]` [UMP, Uridin-5'-Monophosphate Dinatriumsalz], for which the “percentage activity relative to AMP (100%)” value at CD73 [2] is 87.1%. As for `Nc1ncnc2c1ncn2[C@H]1C[C@H](O)[C@@H](COP(=O)(O)O)O1` [dAMP, 2′-Deoxyadenosine 5′-monophosphate], the “decrease in absolute activity (relative to AMP) compared with the ribonucleotide equivalent” value on CD73 [2] turned out to be 28.8%. As for `Nc1ccn([C@@H]2O[C@H](COP(=O)(O)O)[C@@H](O)[C@H]2O)c(=O)n1` [CMP, Cytidine 5′-monophosphate], the “percentage activity relative to AMP (100%)” value at CD73 [2] is listed as 73.4%.

As for `Nc1ncnc2c1ncn2[C@@H]1O[C@H](COP(=O)(O)OP(=O)(O)O)[C@@H](O)[C@H]1O` [ADP], the figures for the Ki at CD73 [4] (ref 29), at CD73 [4] (ref 32) and at CD73 [4] (ref 33) were 3.88 µM, 0.082 µM and 0.91 µM, respectively. In the case of `NC(=O)c1ccc[n+]([C@@H]2O[C@H](COP(=O)([O-])OP(=O)(O)OC[C@H]3O[C@@H](n4cnc5c(N)ncnc54)[C@H](O)[C@@H]3O)[C@@H](O)[C@H]2O)c1` [NAD^+], the turnover rate in the assay with CD73 [5] was 5 nmol/min/mg.

(Values after article PMC8677862, “Substrate binding modes of purine and pyrimidine nucleotides to human ecto-5′-nucleotidase (CD73) and inhibition by their bisphosphonic acid derivatives” (Purinergic Signalling, 2021).)
